Source: ChEMBL document CHEMBL1201862, “PubChem BioAssay data set” (2004)
Active and inactive are the calls of the source.

Key:
[1] = HEp-2 cell cytotoxicity, dose response, cytotoxicity control for RSV inhibitor project, HTS (AID 2410); assay type: functional; conditions: human respiratory syncytial virus
[2] = inhibitors of HIV Env-driven cell fusion, dose response, cherry-pick (AID 652057); assay type: functional, cell-based
[3] = ZM109 Env clade C HIV-1 fusion inhibitors, dose response, HeLa effector, CEM target cells, luciferase, cherry-pick (AID 652058); assay type: functional, cell-based
[4] = off-target signal loss in HeLa-CEM21 co-culture – HeLa F-luc CTL cells, cherry-picked, counter-screen for HIV-1 Env fusion inhibitor project, dose response (AID 652040); assay type: functional, cell-based;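 note: potency for signal decrease marking cytotoxic or nonspecific inhibition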
[5] = inhibitors of clade B AD8 Env fusion, dose response, cell-based, cherry-pick (AID 652062); assay type: functional;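 note: luciferase signal from cell-cell fusion driven by HIV-1 clade B AD8 Env; potency is for inhibitors of fusion seen as a drop in luminescence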
[6] = P. falciparum 3D7-ScDHODH growth inhibitors, dose response, SYBR Green, dry powder samples (AID 1159570); assay type: functional, cell-based;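 note: parasite growth measured after 72 hours of compound exposure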
[7] = HepG2 cell cytotoxicity, dose response, cytotoxicity control, plate reader, dry powder samples (AID 1159569); assay type: functional, cell-based;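 note: inhibitor potency with signal falling toward the positive control level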
[8] = P. falciparum Dd2 growth inhibitors, dose response, SYBR Green, cherry-picked samples (AID 1159567); assay type: functional, cell-based
[9] = P. falciparum Dd2 growth inhibitors, dose response, SYBR Green, dry powder samples (AID 1159566); assay type: functional, cell-based;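 note: potency for growth inhibition with lower SYBR green DNA signal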
[10] = HepG2 cell cytotoxicity, dose response, cytotoxicity control, cherry-picked samples (AID 1159577); assay type: functional, cell-based
[11] = P. falciparum ATP4 D1247Y mutant growth inhibitors, dose response, NITD609-resistant line, SYBR Green, dry powder (AID 1159571); assay type: functional, cell-based;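 note: parasites synchronized at ring stage by sorbitol before testing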
[12] = inhibitors of intracellular T. cruzi replication, confirmation, NIH3T3 host cells, beta-gal luminescence (AID 2044); assay type: functional, cell-based;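 note: intracellular parasites grown in NIH/3T3 mouse fibroblasts as host cells; luminescent beta-galactosidase reporter signal from transgenic T. cruzi replicating inside host cells; inhibitors lower the luminescence signal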
[13] = cytotoxicity toward NIH3T3 fibroblasts, dose response, counter-screen, cell-based, ATP luminescence, mouse fibroblasts (AID 2010); assay type: functional;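 note: cells exposed to compound for about 90 hours before reading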
[14] = biological target: T1, Long-chain-fatty-acid--AMP ligase FadD28 (Mycobacterium tuberculosis, UniProt P9WQ59); test: Fluorescence polarization aasay to screen for inhibitors that compete for the binding of FadD28 to a bisubstrate Measured in Biochemical System Using Plate Reader - 2147-01_Inhibitor_Dose_CherryPick_Activity.; assay type: functional, Mycobacterium tuberculosis H37Rv
T1 sequence (P9WQ59 whole entry): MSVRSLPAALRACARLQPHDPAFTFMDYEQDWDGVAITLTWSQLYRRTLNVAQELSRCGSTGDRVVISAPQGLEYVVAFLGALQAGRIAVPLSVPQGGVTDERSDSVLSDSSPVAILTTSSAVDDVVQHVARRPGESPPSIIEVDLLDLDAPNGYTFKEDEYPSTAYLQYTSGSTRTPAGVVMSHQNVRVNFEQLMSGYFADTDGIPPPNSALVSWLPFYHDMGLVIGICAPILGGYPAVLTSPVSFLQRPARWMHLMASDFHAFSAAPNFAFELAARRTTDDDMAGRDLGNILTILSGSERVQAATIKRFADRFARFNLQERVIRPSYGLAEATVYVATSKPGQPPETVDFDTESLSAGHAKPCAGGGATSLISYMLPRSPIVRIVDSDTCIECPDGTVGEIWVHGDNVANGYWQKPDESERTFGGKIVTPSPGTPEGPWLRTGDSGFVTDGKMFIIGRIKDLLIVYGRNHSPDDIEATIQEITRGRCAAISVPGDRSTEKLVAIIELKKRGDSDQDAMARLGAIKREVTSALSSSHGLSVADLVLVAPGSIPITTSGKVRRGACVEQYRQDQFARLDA

BJ [15] = test: cytotoxicity toward BJ-TERT fibroblasts, dose response, cell-based, RAS-independent, luminescence (AID 1933); assay type: functional; conditions: Homo sapiens
BJ [16] = test: cells; assay type: functional, cell-based; conditions: Homo sapiens
BJ [17] = test: cytotoxicity toward BJ-TERT-LT-ST fibroblasts, dose response, cell-based, RAS-independent, luminescence (AID 1935); assay type: functional; conditions: Homo sapiens;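 note: BJ fibroblasts immortalized with TERT plus LT and ST oncogenes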
[18] = cytotoxicity toward DRD oncogenic fibroblasts, dose response, cell-based, non-viral oncogenic, luminescence (AID 1934); assay type: functional; conditions: Homo sapiens
[19] = biological target: T2, Histone-lysine N-methyltransferase NSD2 (Homo sapiens, UniProt O96028); assay type: biochemical
T2 sequence (O96028 whole entry): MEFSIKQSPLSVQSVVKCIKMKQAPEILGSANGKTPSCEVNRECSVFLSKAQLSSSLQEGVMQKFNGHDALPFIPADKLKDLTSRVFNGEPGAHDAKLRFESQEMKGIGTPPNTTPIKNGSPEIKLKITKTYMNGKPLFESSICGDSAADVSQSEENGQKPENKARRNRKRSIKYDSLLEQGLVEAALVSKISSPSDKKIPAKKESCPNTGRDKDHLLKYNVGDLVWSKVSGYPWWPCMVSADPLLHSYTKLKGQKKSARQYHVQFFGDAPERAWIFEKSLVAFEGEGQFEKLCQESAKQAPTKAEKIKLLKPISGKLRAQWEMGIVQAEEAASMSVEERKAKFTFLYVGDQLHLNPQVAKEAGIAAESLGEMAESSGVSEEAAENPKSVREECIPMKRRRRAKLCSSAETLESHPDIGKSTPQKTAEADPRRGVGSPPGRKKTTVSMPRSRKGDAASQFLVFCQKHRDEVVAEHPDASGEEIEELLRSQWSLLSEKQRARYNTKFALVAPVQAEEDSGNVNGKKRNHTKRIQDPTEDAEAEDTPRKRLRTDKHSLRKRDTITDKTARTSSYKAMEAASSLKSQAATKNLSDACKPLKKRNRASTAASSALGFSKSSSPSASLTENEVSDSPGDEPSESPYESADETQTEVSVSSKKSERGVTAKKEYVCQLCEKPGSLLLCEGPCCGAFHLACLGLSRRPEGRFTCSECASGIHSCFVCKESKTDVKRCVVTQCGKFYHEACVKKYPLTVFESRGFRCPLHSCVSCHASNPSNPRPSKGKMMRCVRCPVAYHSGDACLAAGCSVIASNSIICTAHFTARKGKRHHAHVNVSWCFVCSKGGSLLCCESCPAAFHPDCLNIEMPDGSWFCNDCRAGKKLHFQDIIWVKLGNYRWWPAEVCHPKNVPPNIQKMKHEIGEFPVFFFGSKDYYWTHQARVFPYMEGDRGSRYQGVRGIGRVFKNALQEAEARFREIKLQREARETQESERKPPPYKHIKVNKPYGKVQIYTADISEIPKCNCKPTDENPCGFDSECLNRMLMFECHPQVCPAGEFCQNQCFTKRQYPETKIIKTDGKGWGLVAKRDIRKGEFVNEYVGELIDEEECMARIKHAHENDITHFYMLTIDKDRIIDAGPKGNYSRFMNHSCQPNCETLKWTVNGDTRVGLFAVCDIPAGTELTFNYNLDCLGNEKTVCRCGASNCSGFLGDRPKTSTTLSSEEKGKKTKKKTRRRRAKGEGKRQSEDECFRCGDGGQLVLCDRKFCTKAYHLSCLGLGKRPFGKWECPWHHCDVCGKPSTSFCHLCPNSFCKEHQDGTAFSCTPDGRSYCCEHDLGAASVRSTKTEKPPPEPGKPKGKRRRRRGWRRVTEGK

cells [20] = assay type: functional, cell-based
cells [21] = assay type: functional, cell-based; remark: listed apart in the source
Protein skinhead-1 = biological target: T3, Protein skinhead-1 (Caenorhabditis elegans, UniProt P34707); assay type: functional
T3 sequence (P34707 whole entry): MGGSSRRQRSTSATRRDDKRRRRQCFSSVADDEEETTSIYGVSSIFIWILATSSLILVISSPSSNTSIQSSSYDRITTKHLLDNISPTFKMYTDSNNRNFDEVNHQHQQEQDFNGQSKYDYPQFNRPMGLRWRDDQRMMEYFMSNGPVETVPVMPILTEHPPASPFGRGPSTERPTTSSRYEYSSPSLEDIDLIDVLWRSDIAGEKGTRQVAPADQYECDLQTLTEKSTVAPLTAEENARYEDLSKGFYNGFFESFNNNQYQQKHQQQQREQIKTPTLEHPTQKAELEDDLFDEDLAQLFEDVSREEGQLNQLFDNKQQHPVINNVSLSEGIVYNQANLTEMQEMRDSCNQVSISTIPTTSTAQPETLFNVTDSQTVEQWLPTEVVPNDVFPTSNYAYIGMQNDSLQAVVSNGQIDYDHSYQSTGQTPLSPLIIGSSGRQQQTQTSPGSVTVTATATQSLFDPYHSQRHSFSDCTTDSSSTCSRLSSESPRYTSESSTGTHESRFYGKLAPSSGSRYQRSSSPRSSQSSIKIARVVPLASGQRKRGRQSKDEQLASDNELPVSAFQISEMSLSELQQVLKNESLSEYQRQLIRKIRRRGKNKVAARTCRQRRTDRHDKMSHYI

## COc1cc(-c2nc3oc4ccccc4c(=O)c3c(=O)n2Cc2ccco2)cc(OC)c1OC
[1]
  CC50: > 50 µM (active)
[2]
  AC50: 2.38 µM (active)
[3]
  AC50: 0.584 µM (active)
[4]
  AC50: 5.7 µM (active)
[5]
  AC50: 4.1 µM (active)

## COc1ccccc1C#Cc1ccc2c(c1)[C@@H]1NCC[C@@H]1[C@H](CO)N2
[6]
  AC50: 3.15 µM (active)
[7]
  AC50: 37.3 µM (active)
[8]
  AC50: 2.56 µM (active)
[9]
  AC50: 1.94 µM (active)
[10]
  AC50: > 39 µM (inactive)
[11]
  AC50: 4.53 µM (active)

## COc1cc(/C=N/NC(N)=S)ccc1OCc1ccc(C)cc1
[12]
  EC50: 0.566 µM (active)
[13]
  EC50: 8.5 µM (active)
[14]
  AC50: 69.9 µM (active)

## O=C(Cn1nnc(-c2ccc3c(c2)OCO3)n1)Nc1ccccc1C(=O)O
[14]
  AC50: 32 µM (inactive)

## Cc1nc(N2CCCCC2)sc1C(=O)c1ccc(Cl)c([N+](=O)[O-])c1
BJ [15]
  EC50: 9.77 µM (active)
BJ [16]
  EC50: > 150 µM (not active)
BJ [17]
  EC50: > 75 µM (inconclusive)
[18]
  EC50: 15.6 µM (active)

## CCN(CC)CCNC(=O)c1cc2cc(Br)ccc2s1
[19]
  AC50: > 20 µM (inactive)

## COc1ccc2c3c(n(C)c2c1)[C@H](CO)NCC31CCN(S(=O)(=O)c2cccc(F)c2)CC1
[8]
  AC50: 4.66 µM (active)
[10]
  AC50: > 39 µM (inactive)

## COc1ccccc1C#Cc1ccc([C@@H]2[C@@H](CO)N(C(=O)C3CCCCC3)[C@H]2C#N)cc1
[6]
  AC50: 1.35 µM (active)
[7]
  AC50: 16.4 µM (active)
[8]
  AC50: 2.73 µM (active)
[9]
  AC50: 0.872 µM (active)
[10]
  AC50: > 39 µM (inactive)
[11]
  AC50: 1.06 µM (active)

## O=C(Nc1ccc(Cl)cc1)N[C@@H]1c2c(ccc3ccccc23)OC[C@@H]1CO
[14]
  AC50: 85.5 µM (active)

## C[C@@H]1CN([C@@H](C)CO)C(=O)c2c(c3ccccc3n2C)-c2ccccc2CO[C@@H]1CN(C)Cc1ccc(Cl)c(Cl)c1
[6]
  AC50: 2.24 µM (active)
[7]
  AC50: 22.3 µM (active)
[8]
  AC50: 1.34 µM (active)
[9]
  AC50: 1.11 µM (active)
[10]
  AC50: 22.3 µM (active)
[11]
  AC50: 1.73 µM (active)

## O=C(CSc1n[nH]c(-c2ccccc2)n1)NC(=O)NCc1ccco1
Cells [20]
  IC50: > 29.9 µM (inactive)
Cells [21]
  EC50: > 29.9 µM (inactive)

## C[C@H](CO)N1C[C@H](C)[C@@H](CN(C)S(=O)(=O)c2cccs2)Oc2ccc(NC(=O)Nc3ccc(C(F)(F)F)cc3)cc2C1=O
[14]
  AC50: > 100 µM (inactive)

## O=C(C1CCCC1)N1CC(=O)N2[C@@H](CO)[C@H](c3ccc(C#CCc4ccccc4)cc3)[C@@H]2C1
[8]
  AC50: 2.47 µM (active)
[10]
  AC50: 8.92 µM (active)

## COc1ccc(CN2CC3(C2)CN(C(=O)CN(C)C)[C@H](CO)c2[nH]c4cc(OC)ccc4c23)cc1
[6]
  AC50: 1.6 µM (active)
[7]
  AC50: 13.6 µM (active)
[8]
  AC50: 2.87 µM (active)
[9]
  AC50: 1.64 µM (active)
[10]
  AC50: 35.4 µM (active)
[11]
  AC50: 2.51 µM (active)

## CCn1c(CSc2nnc(-c3ccncc3)n2C)nc2cc(C(=O)O)ccc21
Protein skinhead-1
  IC50: > 100 µM (inactive)
[14]
  AC50: > 100 µM (inactive)

## CCOc1ccc(NS(=O)(=O)c2ccc(C(=O)N(C)CCc3ccc(OC)c(OC)c3)cc2)cc1
[2]
  AC50: 3.4 µM (active)
[3]
  AC50: 2.58 µM (active)
[4]
  AC50: 4.78 µM (active)
[5]
  AC50: 5.92 µM (active)
